Data taken from ChEMBL document CHEMBL1127166, “The analgesic effect of epibatidine and isomers” (1993).

Experiments:
Format in all cases: functional
[1] = test system: Mus musculus; assay: Tested for the maximum possible analgesic effect of epibatidine after 30 min in mouse tail-flick assay at subcutaneous dosage of 1000 ug/kg
[2] = test system: Mus musculus; assay: Tested for the maximum possible analgesic effect of epibatidine after 5 min in mouse tail-flick assay at subcutaneous dosage of 1000 ug/kg
[3] = test system: Mus musculus; assay: Tested for the maximum possible analgesic effect of epibatidine at 15 min in mouse tail-flick assay after subcutaneous dosage of 1000 ug/kg
[4] = test system: Mus musculus; assay: Tested for the analgesic effect in the mouse tail-flick assay at 5 min after subcutaneous injection at dosage of 1000 ug/kg; conditions: sc
[5] = test system: Mus musculus; assay: Tested for the maximum possible analgesic effect of epibatidine after 15 min in mouse tail-flick assay at subcutaneous dosage of 10 ug/kg
[6] = test system: Mus musculus; assay: Tested for the maximum possible analgesic effect of epibatidine after 5 min in mouse tail-flick assay at subcutaneous dosage of 10 ug/kg
[7] = test system: Mus musculus; assay: Tested for the analgesic effect in the mouse tail-flick assay at 5 min after subcutaneous injection at dosage of 10-50 ug/kg; conditions: sc
[8] = test system: Mus musculus; assay: Tested for the maximum possible analgesic effect of epibatidine after 30 min in mouse tail-flick assay at subcutaneous dosage of 10 ug/kg
[9] = test system: Mus musculus; assay: Tested for the maximum possible analgesic effect of epibatidine after 15 min in mouse tail-flick assay at subcutaneous dosage of 1000 ug/kg
[10] = test system: Mus musculus; assay: Tested for the analgesic effect in the mouse tail-flick assay at 5 min after subcutaneous injection at dosage of 50-1000 ug/kg; conditions: sc
[11] = test system: Mus musculus; assay: Tested for the analgesic effect in the mouse tail-flick assay at 5 min after subcutaneous injection at dosage of 5-50 ug/kg
[12] = test system: Mus musculus; assay: Tested for maximum possible of analgesic effect of epibatidine after 5 min in mouse tail-flick assay at subcutaneous dosage of 10 ug/kg
[13] = test system: Mus musculus; assay: Tested for the maximum possible analgesic effect along with saline after 30 min at subcutaneous dosage of 10000 ug/kg
[14] = test system: Mus musculus; assay: Tested for the maximum possible analgesic effect along with naloxone (10 mg/kg) after 15 min at subcutaneous dosage of 10000 ug/kg
[15] = test system: Mus musculus; assay: Tested for the maximum possible analgesic effect along with saline after 5 min at subcutaneous dosage of 10000 ug/kg
[16] = test system: Mus musculus; assay: Tested for the maximum possible analgesic effect along with naloxone (10 mg/kg) after 5 min at subcutaneous dosage of 10000 ug/kg
[17] = test system: Mus musculus; assay: Tested for the maximum possible analgesic effect along with naloxone (10 mg/kg) after 30 min at subcutaneous dosage of 10000 ug/kg
[18] = test system: Mus musculus; assay: Tested for the maximum possible analgesic effect along with saline after 30 min at subcutaneous dosage of 1000-10000 ug/kg
[19] = test system: Mus musculus; assay: Tested for the maximum possible analgesic effect along with saline after 15 min at subcutaneous dosage of 10000 ug/kg
[20] = test system: Mus musculus; assay: Tested for the maximum possible analgesic effect along with saline after 5 min at subcutaneous dosage of 10 ug/kg
[21] = test system: Mus musculus; assay: Tested for the maximum possible analgesic effect along with naloxone (10 mg/kg) after 15 min at subcutaneous dosage of 10 ug/kg
[22] = test system: Mus musculus; assay: Tested for the maximum possible analgesic effect along with naloxone (10 mg/kg) after 5 min at subcutaneous dosage of 10 ug/kg
[23] = test system: Mus musculus; assay: Tested for the maximum possible analgesic effect along with saline after 15 min at subcutaneous dosage of 10 ug/kg
[24] = test system: Mus musculus; assay: Tested for the maximum possible analgesic effect along with saline after 30 min at subcutaneous dosage of 10 ug/kg
[25] = test system: Mus musculus; assay: Tested for the maximum possible analgesic effect along with naloxone (10 mg/kg) after 30 min at subcutaneous dosage of 10 ug/kg

Compound: CC(=O)N1C2CCC1C(c1ccc(Cl)nc1)C2 (configuration not stated)
- Max possible effect [1]: 0%
- Max possible effect [2]: 4%
- Max possible effect [3]: 3%
- ED50 [4]: > 1000 µg/kg

Compound: CN1C2CCC1C(c1ccc(Cl)nc1)C2 (configuration not stated)
- Max possible effect [5]: 16%
- Max possible effect [6]: 64%
- ED50 [7]: 9 µg/kg
- Max possible effect [8]: 8%

Compound: Clc1ccc(C2CC3CCC2N3)cn1 (configuration not stated) [EPIBATIDINE]
- Max possible effect [1]: 11%
- Max possible effect [2]: 5%
- Max possible effect [9]: 10%
- ED50 [10]: > 1000 µg/kg

Compound: Clc1ccc(C2CC3CCC2N3)cn1 (stereo in doubt; l-1) [EPIBATIDINE]
- ED50 [11]: 9 µg/kg
- Max possible effect [5]: 46%
- Max possible effect [8]: 1%
- Max possible effect [12]: 58%

Compound: Clc1ccc(C2CC3CCC2N3)cn1 (racemic) [EPIBATIDINE]
- ED50 [11]: 10 µg/kg
- Max possible effect [5]: 23%
- Max possible effect [6]: 47%
- Max possible effect [8]: 5%

Compound: CN1CC[C@]23c4c5ccc(O)c4O[C@H]2[C@@H](O)C=C[C@H]3[C@H]1C5.CN1CC[C@]23c4c5ccc(O)c4O[C@H]2[C@@H](O)C=C[C@H]3[C@H]1C5.O=S(=O)(O)O
- Max possible effect [13]: 94%
- Max possible effect [14]: 3%
- Max possible effect [15]: 7%
- Max possible effect [16]: 0%
- Max possible effect [17]: 4%
- Max possible effect [18]: 4524%
- Max possible effect [19]: 51%

Compound: Clc1ccc(C2CC3CCC2N3)cn1 (stereo in doubt; d-1) [EPIBATIDINE]
- Max possible effect [20]: 86%
- ED50 ([11]; Mus musculus, Tail, sc, 5 min, read-out: ED50): 7 µg/kg
- Max possible effect [21]: 49%
- Max possible effect [22]: 77%
- Max possible effect [5]: 32%
- Max possible effect [23]: 48%
- Max possible effect [24]: 4%
- Max possible effect [6]: 89%
- Max possible effect [8]: 3%
- Max possible effect [25]: 0%
